Experiment [1] concerns the target MAPK14 (human) (UniProt Q16539). As to the kind of experiment: Inhibition of IL-1 Production in Whole Blood.
Experiment [2] has the same target. As to the kind of experiment: Inhibition of TNF Production in Whole Blood.
The target is the same in experiment [3]. As to the kind of experiment: Inhibition of TNF-alpha Production in LPS-Stimulated PBMCs. The conditions noted are these: pbmc.
Experiment [4] shares this target. Kind of experiment: Inhibition of IL-1 Production in LPS-Stimulated PBMCs. The settings on record: pbmc.
The target is the same in experiment [5]. As to the kind of experiment: Inhibition of MAPK14 Kinase Activity.
For experiment [6] the target is unchanged. As to the kind of experiment: Inhibition of IL-6 Production in Whole Blood.

Molecules are shown by their SMILES.

Sequence of MAPK14 (human) (Q16539 whole entry, looked up): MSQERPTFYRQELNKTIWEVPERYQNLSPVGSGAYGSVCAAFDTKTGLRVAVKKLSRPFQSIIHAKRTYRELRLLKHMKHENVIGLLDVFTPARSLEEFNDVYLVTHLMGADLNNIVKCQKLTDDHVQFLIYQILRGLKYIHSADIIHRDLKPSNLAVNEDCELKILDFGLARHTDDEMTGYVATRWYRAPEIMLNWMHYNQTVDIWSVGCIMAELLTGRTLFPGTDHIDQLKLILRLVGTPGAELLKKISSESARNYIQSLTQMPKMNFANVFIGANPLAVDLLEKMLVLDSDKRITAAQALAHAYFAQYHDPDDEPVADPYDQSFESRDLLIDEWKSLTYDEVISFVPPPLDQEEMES

On to `COC(=O)c1ccccc1Sc1ccc2c(-c3c(Cl)cccc3Cl)c(=O)ncn2n1`, for which the 50% inhibitory concentration (IC50) is more than 500 nM on MAPK14 (human) [1], more than 500 nM on MAPK14 (human) [2], 100 to 500 nM against MAPK14 (human) [3] and less than 100 nM against MAPK14 (human) [4].
As to `CN(C)C=Nc1ccc(-c2c(=O)ncn3nc(Sc4cc(F)ccc4Cl)ccc23)c(Cl)c1`, the IC50 on MAPK14 (human) [5] is 100 to 1000 nM; against MAPK14 (human) [3], more than 500 nM; against MAPK14 (human) [4], 100 to 500 nM.
In the case of `COc1ccc(-c2c(=O)ncn3nc(Sc4ccc(F)cc4)ccc23)c(Cl)c1OC`, the IC50 against MAPK14 (human) [1], against MAPK14 (human) [2], against MAPK14 (human) [3], on MAPK14 (human) [6] and against MAPK14 (human) [4] was more than 500 nM in each case.
For the compound `NC(=O)C(c1cccc(-c2ccccc2)n1)c1cc(Cl)ccc1Cl` (stereo unspecified), the IC50 was more than 500 nM against MAPK14 (human) [1]; more than 500 nM against MAPK14 (human) [2]; more than 500 nM at MAPK14 (human) [3]; more than 500 nM against MAPK14 (human) [6]; 100 to 500 nM against MAPK14 (human) [4].
Turning to `O=C1NCN2N=C(Sc3ccc(F)cc3F)C=CC2=C1c1cc2c(cc1Cl)OCO2`, the half-inhibitory concentration (IC50) at MAPK14 (human) [1] is less than 250 nM; at MAPK14 (human) [2] it was less than 250 nM; against MAPK14 (human) [5], less than 100 nM; at MAPK14 (human) [3], less than 100 nM; against MAPK14 (human) [6] it was less than 250 nM; against MAPK14 (human) [4] it was less than 100 nM.
As to `Nc1ccc(Cl)c(-c2c(=O)ncn3nc(Sc4ccc(F)cc4)ccc23)c1Cl`, the 50% inhibitory concentration (IC50) at MAPK14 (human) [1] is more than 500 nM; against MAPK14 (human) [2], more than 500 nM; against MAPK14 (human) [5], 100 to 1000 nM; on MAPK14 (human) [3], more than 500 nM; at MAPK14 (human) [6], more than 500 nM; at MAPK14 (human) [4], 100 to 500 nM.
Turning to `NC(=O)C(c1cccc(-c2ccccc2CN2CCNCC2)n1)c1c(Cl)cccc1Cl` (stereo unspecified), the 50% inhibitory concentration (IC50) against MAPK14 (human) [1], at MAPK14 (human) [2], at MAPK14 (human) [3], against MAPK14 (human) [6] and at MAPK14 (human) [4] was more than 500 nM throughout.
In the case of `CCc1cc(Cl)c(C2=C3C=CC(Sc4ccc(F)cc4)=NN3CNC2=O)cc1O`, the IC50 on MAPK14 (human) [1] was more than 500 nM; against MAPK14 (human) [2] it was more than 500 nM; against MAPK14 (human) [5], less than 100 nM; at MAPK14 (human) [3] it was more than 500 nM; on MAPK14 (human) [6], more than 500 nM; against MAPK14 (human) [4], 100 to 500 nM.
Turning to `COC(=O)CCc1ccc(SC2=NN3CNC(=O)C(c4c(Cl)cccc4Cl)=C3C=C2C)cc1`, the IC50 against MAPK14 (human) [1] is more than 500 nM; on MAPK14 (human) [2] it was more than 500 nM; on MAPK14 (human) [3], more than 500 nM; on MAPK14 (human) [6], more than 500 nM; on MAPK14 (human) [4] it was 100 to 500 nM.
As to `O=c1ncn2nc(Sc3ccccc3)ccc2c1-c1ccccc1`, the Ki on MAPK14 (human) [5] is more than 20000 nM.
As to `CNCc1ccccc1-c1cccc(C(C(N)=O)c2c(Cl)cccc2Cl)n1` (stereo unspecified), the IC50 at MAPK14 (human) [1], against MAPK14 (human) [2], against MAPK14 (human) [3], against MAPK14 (human) [6] and against MAPK14 (human) [4] was more than 500 nM in each case.
With `Cc1cc(F)ccc1SC1=NN2CNC(=O)C(c3c(F)cccc3F)=C2C=C1`, the IC50 on MAPK14 (human) [5] is less than 100 nM; at MAPK14 (human) [3], more than 500 nM; on MAPK14 (human) [4], 100 to 500 nM.
Regarding `O=c1ncn2nc(Sc3ccccc3)ccc2c1-c1c(F)cccc1C(F)(F)F`, the IC50 on MAPK14 (human) [3] and at MAPK14 (human) [4] was more than 500 nM in each case.
Take `O=c1ncn2nc(Sc3ccccc3)ccc2c1-c1ccc(Cl)c(Cl)c1`: the IC50 at MAPK14 (human) [3] and against MAPK14 (human) [4] was more than 500 nM throughout.
As for `NC(=O)C(c1cccc(-c2ccccc2CN2CCCC2)n1)c1c(Cl)cccc1Cl` (stereo unspecified), the results for the IC50 against MAPK14 (human) [3] and at MAPK14 (human) [4] were more than 500 nM and 100 to 500 nM, respectively.
For the compound `COc1ccc(-c2c(=O)ncn3nc(Sc4ccc(F)cc4)ccc23)cc1OC`, the figures for the IC50 against MAPK14 (human) [5], against MAPK14 (human) [3] and against MAPK14 (human) [4] were 100 to 1000 nM, more than 500 nM and more than 500 nM, respectively.
As to `O=C(O)c1cc(F)ccc1Sc1ccc2c(-c3c(Cl)cccc3Cl)c(=O)ncn2n1`, the IC50 against MAPK14 (human) [5] is more than 1000 nM; on MAPK14 (human) [3], more than 500 nM; at MAPK14 (human) [4], more than 500 nM.

As usually defined, the IC50 is the point on the concentration scale where inhibition reaches its midpoint. A low value points to greater potency in that assay. A word on the Ki: it is the dissociation constant of the complex between target and ligand, obtained from inhibition or displacement. A higher Ki goes with lower affinity.

Source of the values: the Kinase Knowledgebase extract (Sharma et al. 2016).
